In DBAASP:
Converted amounts (≈) assume the structure as drawn. “And” between values parts separate entries of the source, which are not always exact repeats. Identical values can stand only once. Blank lines part the entries; values can stand above or below the compound they belong to.

How the values were obtained:
Assay in all cases: ≥ marks a high value that may be exact or a test limit, other limits are often not marked, values filed in µg/mL are converted to µM
[1] = tested on: Staphylococcus aureus USA 300
[2] = tested on: Escherichia coli ATCC 25922
[3] = tested on: Pseudomonas aeruginosa E411-17
[4] = tested on: Klebsiella pneumoniae ATCC 13883
[5] = tested on: Staphylococcus aureus JE2
[6] = tested on: Staphylococcus aureus M838-17
[7] = tested on: Pseudomonas aeruginosa PAO1
[8] = tested on: Enterococcus faecium V286-17
Escherichia coli E416-7 = tested on: Escherichia coli E416-7
[9] = tested on: Klebsiella pneumoniae E406-17
[10] = tested on: Bacillus subtilis ATCC 6633
[11] = tested on: Staphylococcus aureus ATCC 9144
[12] = tested on: Escherichia coli DH5alpha
[13] = tested on: Escherichia coli ATCC 10536
Staphylococcus aureus = tested on: Staphylococcus aureus
Candida albicans = tested on: Candida albicans
Pseudomonas aeruginosa = tested on: Pseudomonas aeruginosa
Cryptococcus neoformans = tested on: Cryptococcus neoformans
Aeromonas hydrophila = tested on: Aeromonas hydrophila
Bacillus cereus = tested on: Bacillus cereus
Escherichia coli = tested on: Escherichia coli
Shigella flexneri = tested on: Shigella flexneri
[14] = tested on: Staphylococcus epidermidis
[15] = tested on: Corynebacterium glutamicum
Vibrio alginolyticus = tested on: Vibrio alginolyticus
Vibrio parahaemolyticus = tested on: Vibrio parahaemolyticus
Bacillus subtilis = tested on: Bacillus subtilis
Enterobacter cloacae = tested on: Enterobacter cloacae
Morganella morganii = tested on: Morganella morganii
Escherichia coli NDM-1 = tested on: Escherichia coli NDM-1
[16] = tested on: Bacillus subtilis ATCC 23857
[17] = tested on: Staphylococcus aureus ATCC 1717
Klebsiella oxytoca = tested on: Klebsiella oxytoca
[18] = tested on: Klebsiella pneumoniae NDM-1
Citrobacter freundii = tested on: Citrobacter freundii
Enterococcus faecalis = tested on: Enterococcus faecalis
[19] = tested on: Bacillus subtilis ATCC 6051
[20] = tested on: Staphylococcus aureus ATCC 29213
[21] = tested on: Bacillus licheniformis ATCC 14580
[22] = tested on: Bacillus amyloliquefaciens ATCC 23842
[23] = tested on: Bacillus cereus ATCC 14579
[24] = tested on: Salmonella enterica ATCC H9812
[25] = tested on: Enterococcus faecalis 1F-1
[26] = tested on: Proteus mirabilis ATCC 35659
[27] = tested on: Enterococcus faecium 5F-10
Escherichia coli ESBL = tested on: Escherichia coli ESBL
Bacillus subtilis 168 = tested on: Bacillus subtilis 168
Escherichia coli BL21 = tested on: Escherichia coli BL21

MIC [1]: 1.6 µM and 3.1 µM and 4.4 µM
MIC [2]: > 25 µM
MIC [3]: ≥ 50 µM
MIC [4]: 25 µM (≈ 34.5 µg/mL)
MIC [5]: 1.13 µM (≈ 1.56 µg/mL)
MIC [6]: 2.25 µM (≈ 3.1 µg/mL)
MIC [7]: > 25 µM
MIC [8]: 4.4 µM (≈ 6.07 µg/mL)
MIC (Escherichia coli E416-7): ≥ 50 µM
MIC [9]: ≥ 50 µM
Structure (SMILES): CC(C)C[C@H](NC(=O)[C@H](CC(C)C)NC(=O)[C@H](CCCCN)NC(=O)[C@H](CC(C)C)NC(=O)CNC(=O)[C@H](CC(C)C)NC(=O)[C@H](CO)NC(=O)[C@H](CC(C)C)NC(=O)[C@H](CC(C)C)NC(=O)[C@H](CC(C)C)NC(=O)[C@H](CCCCN)NC(=O)[C@H](CC(C)C)NC(=O)CN)C(N)=O [GLKLLLSLGLKLL]

MIC [10]: 20 µM (≈ 55.2 µg/mL)
MIC [11]: 20 µM (≈ 55.2 µg/mL)
MIC [12]: 4.3 µM (≈ 11.9 µg/mL)
MIC [13]: 4.5 µM (≈ 12.4 µg/mL)
Structure (SMILES): CC[C@H](C)[C@H](NC(=O)CN)C(=O)NCC(=O)N[C@@H](C)C(=O)N[C@H](C(=O)N[C@@H](CC(C)C)C(=O)N[C@@H](CCCCN)C(=O)N[C@H](C(=O)N[C@@H](C)C(=O)N[C@H](C(=O)N[C@H](C(=O)NCC(=O)N[C@@H](C)C(=O)N1CCC[C@H]1C(=O)N[C@@H](C)C(=O)N[C@@H](CC(C)C)C(=O)N[C@H](C(=O)N[C@@H](CO)C(=O)N[C@@H](Cc1c[nH]c2ccccc12)C(=O)N[C@H](C(=O)N[C@@H](CCCCN)C(=O)N[C@@H](CCCN=C(N)N)C(=O)N[C@@H](CCCCN)C(=O)N[C@@H](CCCN=C(N)N)C(=O)N[C@@H](CCC(N)=O)C(=O)N[C@@H](CCC(N)=O)C(N)=O)[C@@H](C)CC)[C@@H](C)CC)[C@@H](C)O)[C@@H](C)O)C(C)C)C(C)C [GIGAVLKVATTGAPALISWIKRKRQQ]

MIC (Staphylococcus aureus): > 50 µM
MIC (Candida albicans): > 50 µM
MIC (Pseudomonas aeruginosa): > 50 µM
MIC (Cryptococcus neoformans): ≥ 50 µM
MIC (Aeromonas hydrophila): ≥ 50 µM
MIC (Bacillus cereus): ≥ 50 µM
MIC (Escherichia coli): 35.4 µM (≈ 105 µg/mL)
MIC (Shigella flexneri): ≥ 50 µM
MIC [14]: ≥ 50 µM
MIC [15]: 8.84 µM (≈ 26.4 µg/mL)
MIC (Vibrio alginolyticus): ≥ 50 µM
MIC (Bacillus subtilis): ≥ 50 µM
Structure (SMILES): CC[C@H](C)[C@H](NC(=O)[C@H](CC(C)C)NC(=O)[C@H](CCC(=O)O)NC(=O)[C@@H]1CCCN1C(=O)[C@H](CC(C)C)NC(=O)[C@H](Cc1cnc[nH]1)NC(=O)[C@@H](NC(=O)[C@H](CCCCN)NC(=O)[C@@H](NC(=O)[C@H](Cc1ccccc1)NC(=O)[C@H](CCCCN)NC(=O)[C@H](CCCN=C(N)N)NC(=O)[C@H](CS)NC(=O)[C@H](CC(C)C)NC(=O)[C@H](CO)NC(=O)[C@H](CCCCN)NC(=O)[C@H](CC(C)C)NC(=O)[C@H](CC(C)C)NC(=O)CN)C(C)C)C(C)C)C(=O)N[C@@H](CCC(=O)O)C(=O)N[C@@H](CCC(=O)O)C(=O)N[C@@H](CC(C)C)C(=O)N[C@H](C(=O)N[C@H](C(=O)N[C@H](C(=O)N[C@@H](CC(=O)O)C(=O)O)[C@@H](C)O)[C@@H](C)O)[C@@H](C)O [GLLKSLCRKFVKVHLPELIEELTTTD]
MIC (Vibrio parahaemolyticus): ≥ 50 µM

MIC [2]: 32 µM (≈ 41 µg/mL)
MIC (Enterobacter cloacae): 22.6 µM (≈ 29 µg/mL)
MIC (Morganella morganii): ≥ 128 µM
MIC (Escherichia coli NDM-1): 16 µM (≈ 20.5 µg/mL)
MIC [16]: 16 µM (≈ 20.5 µg/mL)
MIC [17]: ≥ 128 µM
MIC (Klebsiella oxytoca): ≥ 64 µM
MIC [18]: 22.6 µM (≈ 29 µg/mL)
MIC (Citrobacter freundii): 22.6 µM (≈ 29 µg/mL)
MIC (Enterococcus faecalis): ≥ 128 µM
Structure (SMILES): CC[C@H](C)[C@H](NC(=O)CNC(=O)[C@@H](NC(=O)[C@H](CCCCN)NC(=O)[C@H](C)NC(=O)[C@@H](NC(=O)[C@@H](NC(=O)CN)[C@@H](C)CC)[C@@H](C)CC)[C@@H](C)CC)C(=O)N[C@@H](CCCCN)C(=O)N[C@H](C(=O)N[C@@H](CCCCN)C(=O)N[C@@H](CCCCN)C(N)=O)[C@@H](C)CC [GIIAKIGIKIKK]

MIC [2]: 91.2 µM (≈ 64 µg/mL)
MIC [19]: ≥ 182 µM
MIC [20]: > 182 µM
MIC [7]: > 182 µM
MIC [21]: ≥ 182 µM
MIC [22]: ≥ 182 µM
MIC [23]: ≥ 182 µM
MIC [24]: ≥ 182 µM
MIC [25]: ≥ 182 µM
MIC [26]: ≥ 182 µM
MIC [27]: ≥ 182 µM
Structure (SMILES): CC(C)C[C@H](NC(=O)[C@@H](N)CC(C)C)C(=O)N[C@@H](CO)C(=O)N[C@@H](CCCN=C(N)N)C(=O)N[C@H](C(=O)N[C@@H](CC(=O)O)C(=O)O)C(C)C [LLSRVD]

MIC (Escherichia coli ESBL): 20 µM (≈ 30.4 µg/mL)
MIC (Bacillus subtilis 168): 2.5 µM (≈ 3.81 µg/mL)
MIC (Staphylococcus aureus): 20 µM (≈ 30.4 µg/mL)
MIC (Escherichia coli BL21): 20 µM (≈ 30.4 µg/mL)
Structure (SMILES): CC[C@H](C)[C@H](NC(=O)CN)C(=O)N[C@H](C(=O)N[C@@H](CCCCN)C(=O)N[C@@H](CCCCN)C(=O)N[C@H](C(=O)N[C@H](C(=O)N[C@@H](CCCCN)C(=O)N[C@@H](CCCCN)C(=O)N[C@H](C(=O)N[C@H](C(=O)N[C@@H](CCCCN)C(=O)N[C@@H](CCCCN)C(N)=O)[C@@H](C)CC)[C@@H](C)CC)[C@@H](C)CC)[C@@H](C)CC)[C@@H](C)CC [GIIKKIIKKIIKK]
